Experimental data published in patent publication US5789434A, “Derivatives of substituted 4-biarylbutyric acid as matrix metalloprotease inhibitors” (priority 1995, dated 1998).

Columns and labels:
MMP-3 = biological target: T1, MMP-3 (Homo sapiens, UniProt P08254); test: Primary Thiopeptilide MMP-3 Inhibition Assay; type: biochemical; conditions: for IC50: pH 6.5, 13 nM stromelysin, x (n) = average of n determinations, read-out: MMP-3 Thiopep. IC50; for inhibition at 5 µM: read-out: MMP-3 Thiopep. % inhibition
T1 construct: Truncated Prostromelysin-257 was expressed in a soluble form in E.coli; made in house; host or cells: E. coli
T1 sequence (P08254 100-274 limits assumed): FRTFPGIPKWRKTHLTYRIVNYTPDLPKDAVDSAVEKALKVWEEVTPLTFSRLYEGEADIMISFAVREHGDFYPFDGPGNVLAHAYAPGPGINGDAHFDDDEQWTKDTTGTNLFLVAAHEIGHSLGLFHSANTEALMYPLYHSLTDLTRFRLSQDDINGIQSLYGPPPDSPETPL
Method: Enzyme: recombinant stromelysin expressed in E.coli and purified as described above. […] The protocols for the assay of compounds as stromelysin inhibitors was the same as that used for MMP-9 except that the assay buffer was 50 mM MES, pH 6.5 containing 150 mM NaCl, 10 mM CaCl2, 0.005% Brij, and 1% DMSO.

MMP-9 = biological target: T2, MMP-9 (Homo sapiens, UniProt P14780); test: Thiopeptilide MMP-9 Inhibition Assay; type: biochemical; conditions: for IC50: pH 6.5, x (n) = average of n determinations, read-out: MMP-9: Thiopep. IC50; for inhibition at 5 µM: read-out: MMP-9: Thiopep. % inhibition
T2 construct: from tissue; host or cells: human polymorphonuclear leukocytes (PMN) from whole blood (New York Blood Center), PMA-stimulated supernatant
T2 sequence (P14780 107-707 limits assumed): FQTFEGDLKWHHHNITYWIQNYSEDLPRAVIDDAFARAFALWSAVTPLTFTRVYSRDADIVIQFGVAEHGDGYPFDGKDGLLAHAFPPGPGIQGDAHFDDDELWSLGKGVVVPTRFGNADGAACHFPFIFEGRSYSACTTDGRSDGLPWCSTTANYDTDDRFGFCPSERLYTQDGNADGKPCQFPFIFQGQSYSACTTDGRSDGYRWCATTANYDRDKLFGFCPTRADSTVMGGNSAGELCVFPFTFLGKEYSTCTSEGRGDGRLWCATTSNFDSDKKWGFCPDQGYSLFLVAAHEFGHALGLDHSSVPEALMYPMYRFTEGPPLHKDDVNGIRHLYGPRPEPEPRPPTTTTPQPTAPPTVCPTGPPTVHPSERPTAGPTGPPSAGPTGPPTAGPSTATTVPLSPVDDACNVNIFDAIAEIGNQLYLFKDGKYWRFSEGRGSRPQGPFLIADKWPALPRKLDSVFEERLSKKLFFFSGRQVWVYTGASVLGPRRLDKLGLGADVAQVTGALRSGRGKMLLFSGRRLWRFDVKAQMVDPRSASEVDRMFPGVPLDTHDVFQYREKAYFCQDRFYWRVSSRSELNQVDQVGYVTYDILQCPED

Row | SMILES | IC50 (MMP-3) [nM] | IC50 (MMP-9) [nM] | inhibition at 5 µM (MMP-3) [%] | inhibition at 5 µM (MMP-9) [%]
1 | Cc1ccccc1S[C@@H]1CC[C@H](C(=O)c2ccc(-c3ccc(Cl)cc3)cc2)[C@H]1C(=O)O (relative stereo) [Example 304, Cyclopentanecarboxylic acid, 2-[(4'-chloro[1,1'-biphenyl]-4-yl)carbonyl]-5-[(2-methylphenyl)thio]-, (1α,2β,5α)-] | 55 | 42 | – | –
2 | Cc1ccccc1S[C@H]1CC[C@@H](C(=O)c2ccc(-c3ccc(Cl)cc3)cc2)[C@H]1C(=O)O (relative stereo) [Example 305, Cyclopentanecarboxylic acid, 2-[(4'-chloro[1,1'-biphenyl]-4-yl)carbonyl]-5-[(2-methylphenyl)thio]-, (1α,2α,5α)-] | 470 | 1800 | – | –
3 | Cc1ccccc1S[C@H]1CC[C@H](C(=O)c2ccc(-c3ccc(Cl)cc3)cc2)[C@H]1C(=O)O (relative stereo) [Example 306, Cyclopentanecarboxylic acid, 2-[(4'-chloro[1,1'-biphenyl]-4-yl)carbonyl]-5-[(2-methylphenyl)thio]-, (1α,2β,5α)-] | 150 | 550 | – | –
4 | O=C(O)[C@@H]1[C@@H](C(=O)c2ccc(-c3ccc(Cl)cc3)cc2)CC[C@H]1Sc1ccc(F)cc1 (relative stereo) [Example 309, Cyclopentanecarboxylic acid, 2-[(4'-chloro[1,1'-biphenyl]-4-yl)carbonyl]-5-[(4-fluorophenyl)thio]-, (1α,2β-5β)-] | 73 | 62 | – | –
5 | CC1=C(C)C[C@@H](C(=O)c2ccc(-c3ccc(Cl)cc3)cc2)[C@H](C(=O)O)C1 (relative stereo) [Example 327, 3-Cyclohexene-1-carboxylic acid, 6-[(4'-chloro[1,1'-biphenyl]-4-yl)carbonyl]-3,4-dimethyl-, trans-] | – | 12000 | 55 | –
6 | O=C(O)[C@@H]1CC=CC[C@H]1C(=O)c1ccc(-c2ccc(Cl)cc2)cc1 (relative stereo) [Example 328, 3-Cyclohexene-1-carboxylic acid, 6-[(4'-chloro[1,1'-biphenyl]-4-yl)carbonyl]-, trans-] | – | – | 49 | 45
7 | CC1=CC[C@@H](C(=O)c2ccc(-c3ccc(Cl)cc3)cc2)[C@H](C(=O)O)C1 (relative stereo) [Example 329, 3-Cyclohexene-1-carboxylic acid, 6-[(4'-chloro[1,1'-biphenyl]-4-yl)carbonyl]-3-methyl-, trans-] | – | 8000 | 58 | –
8 | O=C(O)[C@H]1C2CCC(CC2)[C@@H]1C(=O)c1ccc(-c2ccc(Cl)cc2)cc1 (relative stereo) [Example 331, Bicyclo[2.2.2]octane-2-carboxylic acid, 3-[(4'-chloro[1,1'-biphenyl]-4-yl)carbonyl]-, trans-] | – | – | 15 | 18
9 | CC(C)CC(CC(=O)O)C(=O)c1ccc(-c2ccc(Cl)cc2)cc1 (single isomer, unassigned) [Example 5, 5-methyl-3-[oxo-(4'-chloro-4-biphenyl)methyl]hexanoic acid] | – | – | 11 | 19
10 | CC(C)(C)C(=O)SCC(CC(=O)c1ccc(-c2ccc(Cl)cc2)cc1)C(=O)O (single isomer, unassigned) [Example 195, [1,1'-Biphenyl]-4-butanoic acid, 4'-chloro-α-[[(2,2-dimethyl-1-oxopropyl)thio]methyl]-γ-oxo-] | – | – | 31 | 20
11 | CC(C)C[C@@H](CC(=O)c1ccc(-c2ccc(Cl)cc2)cc1)C(=O)O [Example 2, [1,1'-Biphenyl]-4-butanoic acid, 4'-chloro-α-(2-methylpropyl)-γ-oxo-, (S)-] | 270 | 2200 | – | –
12 | CC(C)C[C@H](CC(=O)c1ccc(-c2ccc(Cl)cc2)cc1)C(=O)O [Example 3, [1,1'-Biphenyl]-4-butanoic acid, 4'-chloro-α-(2-methylpropyl)-γ-oxo-, (R)-] | – | – | 13 | 0
13 | O=C(O)CCC(=O)c1ccc(-c2ccc(Cl)cc2)cc1 [Example 6, [1,1'-Biphenyl]-4-butanoic acid, 4'-chloro-γ-oxo-, reference compound] | 2100 | – | – | 38
14 | O=C(O)CCC(=O)c1ccc(-c2ccc(Br)cc2)cc1 [Example 7, [1,1'-Biphenyl]-4-butanoic acid, 4'-bromo-γ-oxo-, reference compound] | 690 | 2100 | – | –
15 | O=C(O)CCC(=O)c1ccc(-c2ccc(F)cc2)cc1 [Example 8, [1,1'-Biphenyl]-4-butanoic acid, 4'-fluoro-γ-oxo-, reference compound] | – | – | 26 | 0
16 | O=C(O)CCC(=O)c1ccc(-c2ccccc2F)cc1 [Example 9, [1,1'-Biphenyl]-4-butanoic acid, 2'-fluoro-γ-oxo-, reference compound] | – | – | 0 | 3
17 | O=C(O)CCC(=O)c1ccc(-c2ccccc2Cl)cc1 [Example 10, [1,1'-Biphenyl]-4-butanoic acid, 2'-chloro-γ-oxo-, reference compound] | – | – | 1 | 0
18 | O=C(O)CCC(=O)c1ccc(-c2ccc(F)cc2F)cc1 [Example 11, [1,1'-Biphenyl]-4-butanoic acid, 2',4'-difluoro-γ-oxo-, reference compound] | – | – | 14 | 0

Row | SMILES | IC50 (MMP-3) [nM] | IC50 (MMP-9) [nM] | inhibition at 5 µM (MMP-3) [%] | inhibition at 5 µM (MMP-9) [%]
19 | O=C(O)CCC(=O)c1ccc(-c2cccc(Cl)c2)cc1 [Example 12, [1,1'-Biphenyl]-4-butanoic acid, 3'-chloro-γ-oxo-, reference compound] | – | – | 17 | 0
20 | CC(C)CC(CC(=O)c1ccc(-c2ccc(F)cc2)cc1)C(=O)O (stereo not drawn) [Example 15, [1,1'-Biphenyl]-4-butanoic acid, 4'-fluoro-α-(2-methylpropyl)-γ-oxo-] | 2000 | – | – | 0
21 | CCc1ccc(-c2ccc(C(=O)CC(CC(C)C)C(=O)O)cc2)cc1 (stereo not drawn) [Example 16, [1,1'-Biphenyl]-4-butanoic acid, 4'-ethyl-α-(2-methylpropyl)-γ-oxo-] | 620 | 3100 | – | –
22 | CC(C)CC(CC(=O)c1ccc(-c2ccccc2F)cc1)C(=O)O (stereo not drawn) [Example 17, [1,1'-Biphenyl]-4-butanoic acid, 2'-fluoro-α-(2-methylpropyl)-γ-oxo-] | – | – | 35 | 0
23 | CC(C)CC(CC(=O)c1ccc(-c2ccccc2Cl)cc1)C(=O)O (stereo not drawn) [Example 18, [1,1'-Biphenyl]-4-butanoic acid, 2'-chloro-α-(2-methylpropyl)-γ-oxo-] | – | – | 0.3 | 9
24 | COc1ccc(-c2ccc(C(=O)CC(CC(C)C)C(=O)O)cc2)cc1 (stereo not drawn) [Example 19, [1,1'-Biphenyl]-4-butanoic acid, 4'-methoxy-α-(2-methylpropyl)-γ-oxo-] | 550 | 1200 | – | –
25 | CC(C)CC(CC(=O)c1ccc(-c2ccc(F)cc2F)cc1)C(=O)O (stereo not drawn) [Example 20, [1,1'-Biphenyl]-4-butanoic acid, 2',4'-difluoro-α-(2-methylpropyl)-γ-oxo-] | – | – | 32 | 34
26 | Cc1ccc(-c2ccc(C(=O)CC(CC(C)C)C(=O)O)cc2)cc1 (stereo not drawn) [Example 21, [1,1'-Biphenyl]-4-butanoic acid, 4'-methyl-α-(2-methylpropyl)-γ-oxo-] | 750 | 1200 | – | –
27 | CCCCCc1ccc(-c2ccc(C(=O)CC(CC(C)C)C(=O)O)cc2)cc1 (stereo not drawn) [Example 22, [1,1'-Biphenyl]-4-butanoic acid, α-(2-methylpropyl)-γ-oxo-4'-pentyl-] | 790 | 1200 | – | –
28 | C=C(CC(=O)c1ccc(-c2ccc(Cl)cc2)cc1)C(=O)O [Example 23, [1,1'-Biphenyl]-4-butanoic acid, 4'-chloro-α-methylene-γ-oxo-, reference compound] | – | – | 24 | 0
29 | C=C(CC(=O)c1ccc(-c2ccccc2Cl)cc1)C(=O)O [Example 24, [1,1'-Biphenyl]-4-butanoic acid, 2'-chloro-α-methylene-γ-oxo-, reference compound] | – | – | 40 | 0
30 | CC(C)CC(CC(=O)c1ccc(Cl)cc1)C(=O)O (stereo not drawn) [Example 27, Benzenebutanoic acid, 4-chloro-α-(2-methylpropyl)-γ-oxo-, reference compound] | – | – | 11 | 15
31 | C=C(CC(=O)c1ccc(C)cc1)C(=O)O [Example 28, Benzenebutanoic acid, 4-methyl-α-methylene-γ-oxo-, reference compound] | – | – | 14 | 0
32 | O=C(O)/C=C/C(=O)c1ccc(-c2ccc(Cl)cc2)cc1 [Example 29, 4-Oxo-4-(4'-chloro-4-biphenyl)but-2-enoic acid, reference compound] | – | – | 28 | 44
33 | O=C(O)/C=C/C(=O)c1ccc(Oc2ccc(Cl)cc2)cc1 [Example 30, 2-Butenoic acid, 4-[4-(4-chlorophenoxy)penyl]-4-oxo-, (E)-, reference compound] | – | – | 8 | 25
34 | CC(C)CC(CC(=O)c1ccc(-c2ccc(O)cc2)cc1)C(=O)O (stereo not drawn) [Example 31, [1,1'-Biphenyl]-4-butanoic acid, 4'-hydroxy-α-(2-methylpropyl)γ-oxo-] | – | – | 56 | 29
35 | C=C(CC(=O)O)C(=O)c1ccc(-c2ccc(Cl)cc2)cc1 [Example 32, [1,1'-Biphenyl]-4-butanoic acid, 4'-chloro-β-methylene-γ-oxo-, reference compound] | – | 6000 | 58 | –
